Several values for one entry are separate records, joined by “and”; a condition that tells them apart may be missing. Identical values can stand only once. Like-named read-outs stand apart in the source and are kept apart here.
Key:
[1] = Pharmacokinetic study after i.p. administration; type: in vivo; conditions: mice, 10 mg/kg i.p.
Experimental: Pharmacokinetic study after i.p. and i.g administration
mg/kg), blood samples were collected from mice under deep terminal anesthesia directly by cardiac puncture into heparinized 1.5 mL tubes at selected time intervals.
The samples were centrifuged at 3,000 × g for 10 min (10 °C), and the plasma samples were stored at -80 °C until the HPLC analysis.
The blood in brain vessels would interfere with the assay of actual brain tissue concentrations.
Therefore, the animals were perfused transcardially with saline solution (0.9% NaCl) for 5 min (10 mL/min). After perfusion, the skull was opened, and the brain was carefully removed and immediately stored at -80 °C until the HPLC analysis.
Before analysis, 50 μL of plasma or brain homogenate was precipitated with an internal
standard of 200 μL acetonitrile (ACN). The mixture was vortexed for 1 min at 1,500 rpm and
centrifuged at 12,074 g for 5 min at 20 °C. The supernatant was then transferred to an
injection vial and analyzed.
mm ID (Phenomenex, Torrance, CA, USA), protected with a guard column SecurityGuard
was performed in gradient elution mode with a flow rate of 0.6 mL/min and the following
composition of mobile phase: A) 0.1% FA in water (v/v) and B) 0.1% FA in ACN/MeOH in
The column was kept at 45 °C during
analysis. Samples were held at 10 °C in a light-tight autosampler unit.
Heated-Electrospray Ionization II interface (HESI-II) in positive ion mode was used with the
following settings: spray voltage; +3.5 kV, S-lens RF level; +70 V, capillary temperature 350
°C, auxiliary gas heater temperature; 350 °C, sheet, and auxiliary gas flow; 45 and 15
arbitrary units, respectively. Full MS mode was used at resolution (m/𝛥m) ̴70,000 for
Xcalibur software (v 4.0) was used for data evaluation.

[2] = Stability in plasma (UHPLC-MS method validation); type: in vitro ADME; conditions: rat plasma
Source text: UHPLC-MS method for pharmacokinetics study
Ultra high-performance liquid chromatography system consisting of Ultimate 3000 RS pump Dionex (Thermo Scientific, San Jose, CA, USA) coupled with high-resolution mass spectrometer with orbitrap analyzer (Q Exactive Focus, Thermo Scientific, San Jose, CA, USA) was used in quantitative analyses of 6 in plasma and brain homogenate. According to the EMA[43] and FDA[42] guidelines on Bioanalytical method validation, the method was fully validated for plasma and partially for brain homogenate. All the evaluated parameters met the […]
Table S12. Summary of validation results (precision and accuracy) in plasma for five different concentrations - limit of quantitation(LLOQ), low (QC A), mid (QC B), high (QC C) a dilution (QC D) level. […]
Stability evaluation in rat plasma as deviation from the reference value (100%)

[3] = tested on: mouse microglial cells SIM-A9; assay: MTT cell viability assay, SIM-A9; type: cell-based; conditions: Mus musculus, SIM-A9, 24 h; read-out: IC50 (MTT) ± SEM
Source text: Human neuroblastoma cells SH-SY5Y and mouse microglial cells SIM-A9 were used to evaluate cell viability, intracellular RONS, and malondialdehyde (MDA; CAS No. 542–78-9).
SH-SY5y cells were cultivated in Dulbecco's modified Eagle's medium (DMEM; Biosera, Nuaille, France) supplemented with 10% fetal bovine serum (Biosera) and 1% penicillin-streptomycin antibiotic solution (Sigma-Aldrich, St. Louis, MO, USA). The culture medium for SIM-A9 cells was further supplemented with donor horse serum (Biosera). The cells were incubated at 37 °C in a CO2 incubator (BINDER CO2 incubator CB 160, Tuttlingen, Germany) and routinely passaged by trypsinization at 75 –85% confluence.
Colorimetric Cell Viability Assay
The toxicological indices IC 50 used in the present study were measured utilizing 3-(4,5-dimethylthiazol-2-yl)-2,5-diphenyl-tetrazolium bromide (MTT) reduction assay after (1 picture or pasted object on this page, not shown here)
24 h incubation with tested compounds. […]
incubation, the cultivation medium containing serially diluted substances was aspirated and replaced with a fresh medium containing MTT at a concentration of 0.5 mg/mL and subsequently incubated at 37 °C for 1 h. […] Cell viability was assessed spectrophotometrically by the amount of formazan produced. Absorbance was measured at 570 nm with 650 nm reference wavelength on Spark (Tecan Group Ltd, Switzerland). […]

SH-SY5Y cells = assay: Intracellular O2•-, DHE probe, SH-SY5Y; type: cell-based, human

O[C@H](CNCC1CC1)[C@H](Cc1ccccc1)NC1c2ccccc2-c2ccccc21 [Compound 6]
Tmax ([1]; ICR-CD1, mouse, brain, ip, 10 mg/kg, read-out: brain Tmax (converted)): 0.917 h
Kp ([1]; ICR-CD1, mouse, brain/plasma, ip, 10 mg/kg, read-out: Kp (AUCbrain/AUCplasma), brain-to-plasma ratio): 11.1
MRT ([1]; ICR-CD1, mouse, ip, plasma): 3.62 h
k el ([1]; ICR-CD1, mouse, ip, plasma, read-out: λz (converted)): 7.5e-05 s⁻¹
Cmax ([1]; ICR-CD1, mouse, plasma, ip, 10 mg/kg): 0.43 ± 0.0579 µg/mL
half-life ([1]; ICR-CD1, mouse, plasma, ip, 10 mg/kg, plasma, read-out: Half-life): 2.69 ± 0.237 h
Vd/F ([1]; ICR-CD1, mouse, plasma, ip, 10 mg/kg, plasma, read-out: Vss/F): 38.2 ± 4.47 L/kg
Vd/F ([1]; ICR-CD1, mouse, plasma, ip, 10 mg/kg, plasma, read-out: Vz/F): 40.9 ± 4.95 L/kg
Tmax ([1]; ICR-CD1, mouse, plasma, ip, 10 mg/kg, read-out: plasma Tmax (converted)): 0.389 h
brain AUCtotal [1]: 650,923.00 ± 152,288.00 min.ng/g
plasma AUCtotal [1]: 58,804.62 ± 3,318.21 min.ng/mL
CL ([1]; plasma): 10.2 ± 0.6 L/h/kg
Vz/F ([1]; plasma, 10 mg/kg): ~ 41 L/kg
half-life ([1]; plasma, 10 mg/kg): ~ 161 min
Kp (AUCbrain/AUCplasma), brain-to-plasma ratio ([1]; 10 mg/kg): 11
brain Cmax ([1]; 10 mg/kg): 833.00 ± 62.32 ng/g and 833 ng/g
plasma Cmax ([1]; 10 mg/kg): 0.43 µg/mL
Autosampler stability % (24h) ([2]; QC B (33,50 ng/mL), vs reference value 100%): 97,6 ± 1,5%
Freeze-thaw stability % (3 cycles) ([2]; QC B): 95,8% ± 4,0
Long-term stability % (3 month) ([2]; QC B): 109,9 ± 0,5%
Autosampler stability % (24h) ([2]; QC C (452,73 ng/mL)): 94,6 ± 2,5%
Freeze-thaw stability % (3 cycles) ([2]; QC C): 102,0 ± 4,7%
Long-term stability % (3 month) ([2]; QC C): 105,7 ± 2,2%
IC50 [3]: 6.46 ± 0.09 µM
increase in intracellular O2•- (SH-SY5Y cells; all concentrations and times): No significant increase
decrease of O2•- level (SH-SY5Y cells; conc. = IC50, 24 h): 15%

Reference: article PMC11796312, “Multifunctional, Fluorene‐Based Modulator of Cholinergic and GABAergic Neurotransmission as a Novel Drug Candidate for Palliative Treatment of Alzheimer's Disease” (Angewandte Chemie (International Ed. in English), 2024)
